Results published in patent EP4582087A1, “PHARMACEUTICAL COMPOSITION FOR TREATING LYMPHOMA” (SymBio Pharmaceuticals Limited, priority 2022, dated 2024).

Columns and labels:
calreticulin = assay: Immunogenic cell death: calreticulin staining by flow cytometry; format: cell-based; settings: NK-S1 and KAI-3; BCV 0.1 ug/mL or 1 ug/mL for 72 hours; Fig. 6
Procedure: (§1) NK-S1 and KAI-3 cell lines were treated with BCV (0.1 ug/mL or 1 ug/mL) or DMSO alone for 72 hours. For calreticulin staining, cells were incubated with a calreticulin antibody (1:100, room temperature, 30 minutes) (#ab92516, Abcam Limited.) and washed prior to analysis. Then, the cells were resuspended in PBS and analyzed using a cell analyzer (BD LSR Fortessa, BD Biosciences, San Jose, CA, USA). Data were analyzed using FlowJo version 10.8.0 (BD Biosciences, San Jose, California). The extracellular level of HMGB1 in the case of BCV treatment was measured using Lumit HMGB1 immunoassay (Promega Corporation, Madison, Wisconsin, USA).

[1] = test system: eleven NK/T lymphoma cell lines (KAI-3, NK-S1, NK-92, KHYG-1, NK-YS, MEC-04, SNK-1, SNK-6, YT, HANK-1, or SNT-8); assay: Cell viability (CellTiter-Glo 2.0), eleven NK/T lymphoma cell lines; format: cell-based; settings: Fig. 9
Procedure: The effect of BCV on cell viability was examined in eleven NK/T lymphoma cell lines (KAI-3, NK-S1, NK-92, KHYG-1, NK-YS, MEC-04, SNK-1, SNK-6, YT, HANK-1, or SNT-8). Cell viability was quantified using Promega CellTiter-Glo (registered trademark) 2.0 Cell Viability Assay (Promega Corporation, Madison, Wisconsin, USA) according to the manufacturer's protocol. In brief, cells were plated in a 96-well plate at a concentration of 2 × 10^3 cells per 100 µL of culture medium, and a drug was added at each concentration. After each time point, Promega CellTiter-Glo (registered trademark) 2.0 Cell Viability Assay reagent was added to the wells and incubated at room temperature for 10 minutes. Subsequently, […] was measured using a Tecan M200 Infinite 96-well plate reader and iControl software 1.6 (Tecan, Männedorf, Switzerland). Cell viability was calculated as a percentage of the control absorbance. A dose-response curve was generated by plotting the percentage of viable cells against the drug concentration to analyze the growth-inhibitory effect. The IC50 values were estimated using GraphPad Prism version 8.0.2 (GraphPad Software). All reactions were performed in triplicate (n = 3).

STING pathway = assay: Whole transcriptome sequencing / GSEA / quantitative PCR, STING pathway genes; format: cell-based; settings: NK-S1 and KAI-3; BCV 0.1 µg/mL and 1 µg/mL; Figs. 5B and 5C
Procedure: (§2) BCV-treated NK-S1 and KAI-3 cell lines were subjected to sequencing of the entire transcription product. Gene set enrichment analysis (GSEA) was performed using the Molecular Signatures Database (MSigDB) Hallmark gene set. […] Quantitative PCR was performed using Maxima SYBR Green/ROX qPCR Master Mix (Thermo Scientific, USA). The ΔCt value of a gene's mRNA expression was calculated as the difference between the Ct value of the gene and that of an internal control, GAPDH. The ΔΔCt was calculated by subtracting the ΔCt value of the treatment group from the ΔCt value of an untreated control group. The fold change in expression was calculated using the formula 2^ΔΔCt.

[2] = test system: EBV-positive NK/T lymphoma; assay: In vivo drug treatment of mice inoculated with NK-S1 cells; set-up: species or system NSG mice; settings: 40 mg/kg intraperitoneally twice weekly
Procedure: In in vivo drug treatment with BCV, 6-week-old female NSG mice were inoculated with 0.5 × 10^6 cells (NK-S1), and BCV or a control solvent was administered intraperitoneally at a dosage of 40 mg/kg twice weekly. Tumor measurements were recorded twice weekly until the tumor size in the control group reached approximately 2000 mm^3. Mice were euthanized according to the IACUC guideline. The tumor sizes of the experimental group and the control group (n = 8 per group) were averaged at each time point (Days 1, 5, 8, 12, and 15) and compared statistically. Throughout the experiment, signs of toxicity including diarrhea and weight loss were monitored.

LMP1 = assay: Western blot of LMP1 expression in lymphoma cells; format: cell-based; settings: NK-S1 and KAI-3; 0.1 and 1 µg/mL BCV for 72 hours; Fig. 4
Procedure: (§3) NK-S1 and KAI-3 cell lines were treated with 0.1 and 1 µg/mL BCV for 72 hours. Subsequently, whole-cell lysates were separated by SDS-PAGE using 4 to 15% Mini-PROTEAN™ TGX Stain-Free™ Protein Gel (Bio-Rad Laboratories, Inc., Hercules, CA, USA) and then transferred to a 0.2 µm PVDF membrane (Bio-Rad Laboratories, Inc., Hercules, California, USA). The membrane was blocked and then gently shaken overnight at 4°C in a solution containing 5% skimmed milk powder (Bio-Rad Laboratories, Inc., Hercules, CA, USA) or 5% bovine serum albumin (Sigma-Aldrich, Darmstadt, Germany), TBST solution (50 mM Tris/HCl, pH 7.4, 150 mM NaCl, 0.1% Tween-20), and primary antibodies (anti-EBNA1 antibody (Santa Cruz Biotechnology, Inc.) and anti-LMP1 antibody (Dako)). Exposure to an appropriate HRP-conjugated anti-mouse antibody (Cytiva, Washington D.C., USA) was performed for 1 hour. Finally, chemiluminescent detection was performed using SuperSignal Substrate Western Blotting Kit (Thermo Fisher Scientific Inc., Massachusetts, USA). Imaging was performed using ChemiDoc™ XRS+ (a system with Image Lab™ software, Bio-Rad Laboratories, Inc., Hercules, California, USA).

NK-S1 cell line = assay: Combined treatment cell viability (CellTiter-Glo 2.0), Chou-Talalay combination index; format: cell-based; settings: for type of combined effect based on the combination index value: CI less than 1 indicates synergism; for effect of combined treatment compared to each drug alone: Fig. 7
Procedure: NK-S1 cell line was treated with a selected dose of etoposide, gemcitabine, or gamma irradiation, with or without BCV (0.1 µg/mL). Cell viability was quantified using Promega CellTiter-Glo (registered trademark) 2.0 Cell Viability Assay (Promega Corporation, Madison, Wisconsin, USA) according to the manufacturer's protocol. A combination index (CI) was calculated using Chou-Talalay median-effect analysis to determine if the effect was synergism, an additive effect, or antagonism. Specifically, a CI value less than 1 indicates synergism, and a CI value more than 1 indicates antagonism. A CI value close to 1 (i.e., between 0.9 and 1.1) was considered indicative of an additive effect.

Myc = assay: Whole transcriptome sequencing / GSEA / quantitative PCR, Myc expression; format: cell-based; settings: NK-S1 and KAI-3
Procedure: as §2

EBNA1 = assay: Western blot of EBNA1 expression in lymphoma cells; format: cell-based; settings: NK-S1 and KAI-3; 0.1 and 1 µg/mL BCV for 72 hours; Fig. 4
Procedure: as §3

[3] = test system: MYC-positive lymphoma cells (Raji, Daudi, VAL, BJAB, DB); assay: Cell viability (CellTiter-Glo 2.0), MYC-positive B-cell lymphoma cell lines; format: cell-based; settings: 96 hours, Fig. 8
Procedure: Different B-cell lymphoma cell lines were individually treated with each concentration of BCV for 96 hours. Cell viability was quantified using Promega CellTiter-Glo (registered trademark) 2.0 Cell Viability Assay (Promega Corporation, Madison, Wisconsin, USA) according to the manufacturer's protocol. Information on the presence or absence of EBV and the molecular information were obtained by referring to a public database. The cell lines shown in Fig. 8 have been reported to be classified into groups as follows: Raji and Daudi as Burkitt's lymphoma (BL) cell lines; VAL and DB as diffuse large B-cell lymphoma (DLBCL) cell lines; and BJAB as a BL cell line or a DLBCL cell line. All of these are B lymphomas in which MYC is either translocated or amplified. Raji, Daudi, and VAL are EBV-positive cell lines, while BJAB and DB are EBV-negative cell lines. VAL is triple-hit lymphoma and DB is double-hit lymphoma.

HMGB1 = assay: Immunogenic cell death: extracellular HMGB1 (Lumit HMGB1 immunoassay); format: cell-based; settings: NK-S1 and KAI-3; BCV treatment; Fig. 6
Procedure: as §1

[4] = test system: EBV-positive NK/T lymphoma cells (NK-S1); assay: Cell viability (CellTiter-Glo 2.0), comparison with antiviral agents; format: cell-based; settings: compared to acyclovir, ganciclovir, adefovir, foscarnet, and penciclovir, Fig. 2
Procedure: (§4) Cell viability was determined using Promega CellTiter-Glo (registered trademark) 2.0 Cell Viability Assay (Promega Corporation, Madison, Wisconsin, USA) according to the manufacturer's protocol. Specifically, lymphoma cells were plated in a 96-well plate at a concentration of 2 × 10^3 cells per 100 µL of culture medium, and a drug (BCV) was added to each well at each concentration. At each time point, Promega CellTiter-Glo (registered trademark) 2.0 Cell Viability Assay reagent was added to the wells and incubated at room temperature for 10 minutes. Subsequently, […] was measured using a Tecan M200 Infinite 96-well plate reader and IControl software 1.6 (Tecan, Männedorf, Switzerland). Cell viability was evaluated as a percentage of a control absorbance. A dose-response curve was generated by plotting the percentage of viable cells against the drug concentration to analyze the growth-inhibitory effect. The IC50 values were estimated using GraphPad Prism version 8.0.2 (GraphPad Software). All reactions were performed in triplicate (n = 3). Furthermore, EBV positivity or EBV negativity of the cells was detected based on the presence or absence of an EBV-derived transcript (e.g., EBER, EBNA1, and the like).
The experimental procedure was the same as in Example 1, except that BCV, acyclovir, ganciclovir, adefovir, foscarnet, and penciclovir were used as the drugs.

[5] = test system: NK/T lymphoma cells (KAI-3, NK-S1, KHYG-1); assay: Cell viability (CellTiter-Glo 2.0), NK/T lymphoma cell proliferation; format: cell-based; settings: Fig. 1
Procedure: as §4

[6] = BCV 0.1 µg/mL combined with etoposide
[7] = BCV 0.1 µg/mL combined with gemcitabine

`CCCCCCCCCCCCCCCCOCCCOP(=O)(O)CO[C@H](CO)Cn1ccc(N)nc1=O` [BCV, [(2S)-1-(4-amino-2-oxopyrimidin-1-yl)-3-hydroxypropan-2-yl]oxymethyl-(3-hexadecoxypropoxy)phosphinic acid] was tested, and the “number of calreticulin-positive cells” value (calreticulin) was “clearly increased”, the IC50 values ([1]; four cell lines (KAI-3, NK-S1, NK-92, KHYG-1) versus the other seven cell lines) was “lower IC50 values compared to other cell lines” and the “sensitivity to BCV” value ([1]; four cell lines (KAI-3, NK-S1, NK-92, KHYG-1)) was “high sensitivity to BCV”. For the same compound, the “expression of a gene group in the STING pathway” value (STING pathway) was “increased”, the “enlargement of EBV-positive NK/T lymphoma (tumor size)” value ([2]; NK-S1 in NSG mice, Days 1-15, Figs. 3A to 3D) was “significantly suppressed the enlargement of EBV-positive NK/T lymphoma” and the “animal's health status” value ([2]; NSG mice) was “good”. For the same compound, the “signs of toxicity: diarrhea” value ([2]; NSG mice) was “no diarrhea observed”, the “expression level of LMP1” value (LMP1) was “reduced the expression level” and the “type of combined effect based on the combination index value” (NK-S1 cell line; [6]) was “synergistic effect”. The “effect of combined treatment compared to each drug alone” value (NK-S1 cell line; [6]) was “significant enhancement of the effect”, the “type of combined effect based on the combination index value” (NK-S1 cell line; [7]) was “synergistic effect” and the “effect of combined treatment compared to each drug alone” value (NK-S1 cell line; [7]) was “significant enhancement of the effect”. For the same compound, the Myc expression (Myc; BCV 0.1 µg/mL and 1 µg/mL, Fig. 5A) was “significantly reduced Myc expression”, the “expression of a gene group controlled by MYC” value (Myc; BCV-treated, Fig. 5) was “significantly reduced the expression of a gene group controlled by MYC” and the “expression level of EBNA1” value (EBNA1) was “reduced the expression level”. For the same compound, the “growth-suppressive effect on EBV-positive cells and EBV-negative cells” value ([3]; EBV-positive Raji, EBV-negative BJAB) was “strong growth-suppressive effect on both EBV-positive cells and EBV-negative cells”, the “cell growth-suppressive action on MYC-positive lymphoma cells” value ([3]; Raji, BJAB) was “distinct cell growth-suppressive action” and the “release of HMGB1” value (HMGB1) was “clearly increased”. For the same compound, the cell growth-suppressive effect [4] was “significantly better cell growth-suppressive effect”, the “IC50 value of cell growth-suppressive action” value ([5]; EBV-positive (KAI-3 and NK-S1) versus EBV-negative (KHYG-1) NK/T lymphoma cells) was “significantly lower for EBV-positive NK/T lymphoma cells (KAI-3 and NK-S1) compared to EBV-negative NK/T lymphoma cells (KHYG-1)” and the “proliferation of NK/T lymphoma cells” value ([5]; KAI-3, NK-S1, KHYG-1) was “suppressed the proliferation of NK/T lymphoma cells”.
